One assay deals with T1, serotonin transporter (Rattus norvegicus, UniProt P31652).
T1 construct: from tissue
Description: [3H]5-HT uptake (re-uptake inhibition at the serotonin transporter). It counts as biochemical. Particulars: for Ki: Ki ± SE, Krebs-Ringer-HEPES buffer; for 5-HT/DA (ratio of uptake Ki): ratio of 5-HT uptake Ki to DA uptake Ki. The procedure:
(§1) Various isomeric forms of front-bridged Compounds 4, 5, 29, 30, 31, 40 and 50a and back-bridged Compounds 41, 42a, 42b, 49a and 50a were assayed for binding at the dopamine transporter and for inhibition of monamine re-uptake at the dopamine, serotonin and norepinephrine transporters. Mazindol binding were measured as previously described in Johnson et. al., 1992, Eur. J. Pharmacol., Mol. Pharmacol. Sect., 227:411-415. Reuptake inhibition was measured essentially as described in Yi et. al., 1991, Neuropharmacol. 29:475-486, except that an identical Krebs-Ringer-HEPES buffer was used for binding and all uptake assays (Slusher et al., 1997, Drug Alcohol Depend. 48:43-50).

Assay [1] addresses T2, norepinephrine transporter (Rattus norvegicus, UniProt Q63380).
T2 construct: from tissue
Description: [3H]NE uptake (re-uptake inhibition at the norepinephrine transporter). Type of assay: biochemical. Particulars: Ki ± SE; Krebs-Ringer-HEPES buffer. The procedure:
as §1

Assay [2] has as its target T3, dopamine transporter (Rattus norvegicus, UniProt P23977).
T3 construct: from tissue
In words: [3H]DA uptake (re-uptake inhibition at the dopamine transporter). Type of assay: biochemical. Particulars: for Ki: Ki ± SE, Krebs-Ringer-HEPES buffer; for higher activity / selectivity at the DAT over the 5-HTT: reuptake inhibition, DAT over 5-HTT. Here is the method: as §1

Assay [3] addresses T3, dopamine transporter. In words: [3H]Mazindol binding at the dopamine transporter. Particulars: for Ki: Ki ± SE, Krebs-Ringer-HEPES buffer. Here is the method: as §1
The subject of assay [4] is serotonin and norepinephrine re-uptake. Particulars: in words; cited from earlier work.
The conditions of assay [5]: Preskorn, 1994; cited from earlier work.

The Ki is a dissociation constant, usually derived from enzyme kinetics or from competition with a known ligand. A lower Ki goes with higher affinity.

T3 sequence (P23977 whole entry): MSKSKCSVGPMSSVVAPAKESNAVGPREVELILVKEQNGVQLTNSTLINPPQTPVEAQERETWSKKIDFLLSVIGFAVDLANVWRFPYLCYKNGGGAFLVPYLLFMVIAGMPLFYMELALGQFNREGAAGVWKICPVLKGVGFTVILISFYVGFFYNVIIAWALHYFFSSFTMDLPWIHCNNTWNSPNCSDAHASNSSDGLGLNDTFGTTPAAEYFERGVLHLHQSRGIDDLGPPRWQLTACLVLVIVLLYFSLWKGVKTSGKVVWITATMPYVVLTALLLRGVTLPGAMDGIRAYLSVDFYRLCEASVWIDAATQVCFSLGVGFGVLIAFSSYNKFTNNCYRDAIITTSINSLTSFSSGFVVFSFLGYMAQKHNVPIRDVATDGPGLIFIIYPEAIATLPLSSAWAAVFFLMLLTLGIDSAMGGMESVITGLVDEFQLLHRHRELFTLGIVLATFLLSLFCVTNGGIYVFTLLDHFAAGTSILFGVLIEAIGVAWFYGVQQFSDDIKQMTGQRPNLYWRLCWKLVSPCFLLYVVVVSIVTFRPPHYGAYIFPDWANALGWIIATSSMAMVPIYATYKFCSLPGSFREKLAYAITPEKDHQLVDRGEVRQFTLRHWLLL
T2 sequence (Q63380 1-617): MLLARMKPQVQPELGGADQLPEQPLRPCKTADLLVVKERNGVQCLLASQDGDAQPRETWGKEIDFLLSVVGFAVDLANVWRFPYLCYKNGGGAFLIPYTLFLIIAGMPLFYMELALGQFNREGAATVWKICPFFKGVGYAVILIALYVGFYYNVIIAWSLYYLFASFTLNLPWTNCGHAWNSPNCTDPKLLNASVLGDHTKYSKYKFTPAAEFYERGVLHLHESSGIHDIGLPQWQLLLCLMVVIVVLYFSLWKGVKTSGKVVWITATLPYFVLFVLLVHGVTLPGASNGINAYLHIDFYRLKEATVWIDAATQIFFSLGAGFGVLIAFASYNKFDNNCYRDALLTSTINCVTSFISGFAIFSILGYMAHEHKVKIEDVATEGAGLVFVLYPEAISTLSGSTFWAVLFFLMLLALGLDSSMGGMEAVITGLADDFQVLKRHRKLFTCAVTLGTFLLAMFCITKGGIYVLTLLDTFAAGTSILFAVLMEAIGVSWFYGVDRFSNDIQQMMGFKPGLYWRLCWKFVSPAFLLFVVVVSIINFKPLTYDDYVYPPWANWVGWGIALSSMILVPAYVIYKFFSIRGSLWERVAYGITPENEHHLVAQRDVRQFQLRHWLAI
T1 sequence (P31652 whole entry): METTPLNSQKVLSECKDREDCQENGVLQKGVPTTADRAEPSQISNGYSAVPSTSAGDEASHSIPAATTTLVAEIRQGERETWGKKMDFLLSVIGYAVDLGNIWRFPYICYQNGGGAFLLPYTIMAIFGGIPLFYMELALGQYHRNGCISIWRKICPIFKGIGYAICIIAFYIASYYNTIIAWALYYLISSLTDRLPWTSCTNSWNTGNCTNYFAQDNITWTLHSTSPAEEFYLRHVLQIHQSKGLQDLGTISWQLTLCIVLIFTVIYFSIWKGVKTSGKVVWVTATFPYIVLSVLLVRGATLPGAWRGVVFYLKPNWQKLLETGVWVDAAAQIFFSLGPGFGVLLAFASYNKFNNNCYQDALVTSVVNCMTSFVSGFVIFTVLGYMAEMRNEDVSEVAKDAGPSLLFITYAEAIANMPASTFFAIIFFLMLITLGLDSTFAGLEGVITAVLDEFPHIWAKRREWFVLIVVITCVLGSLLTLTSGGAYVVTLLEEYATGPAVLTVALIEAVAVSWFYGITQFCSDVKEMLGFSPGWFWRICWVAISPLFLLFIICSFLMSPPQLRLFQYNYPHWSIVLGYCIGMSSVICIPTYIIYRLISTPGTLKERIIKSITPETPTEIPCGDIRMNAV

Regarding `CCCC[C@@H]1CC[C@@H]2C3CN[C@H]2C[C@@]31c1ccc(C)cc1` (racemic) [Compound 42a, (1SR, 3SR, 4RS, 5SR, 7RS)-4-butyl-3-(4-methylphenyl)-10-azatricyclo[5.3.0.0^3,8]decane], the Ki is 0.014 ± 0.00058 µM at serotonin transporter, 0.00299 ± 0.00017 µM in assay [1], 0.00223 ± 0.00012 µM on dopamine transporter [2] and 0.004 ± 7e-05 µM at dopamine transporter [3]. The “5-HT/DA (ratio of uptake Ki)” value at serotonin transporter turned out to be 6.3.

Turning to `Cc1ccc(C2CC3CCC4C2c2ccccc2CN34)cc1` (racemic) [Compound 45], the Ki worked out at 0.00177 µM at serotonin transporter, 0.00106 ± 3e-05 µM in assay [1], 0.0239 ± 0.00133 µM on dopamine transporter [2] and 0.00686 ± 0.00043 µM at dopamine transporter [3]. The “5-HT/DA (ratio of uptake Ki)” value on serotonin transporter is 0.074.

Take `C=C1CN2C3CCC2C1C(c1ccc(C)cc1)C3` (racemic) [Compound (±)-40]: the Ki at serotonin transporter was 0.00232 ± 0.00023 µM; in assay [1], 0.00269 ± 0.00012 µM; at dopamine transporter [2], 0.0603 µM; at dopamine transporter [3], 0.0617 ± 0.0085 µM. Besides, the “5-HT/DA (ratio of uptake Ki)” value at serotonin transporter was found to be 0.038. Further, the “binding potency relative to (-)-40” value at dopamine transporter [3] (in words) is recorded as “only slightly decreased from that of the (-)-40”.

With `O=C1CN2CCC(c3ccc(Cl)cc3)C1C2` (stereo not drawn) [Compound (+)-4], the Ki at serotonin transporter turned out to be 4.63 ± 0.76 µM; in assay [1], 38.3 ± 4.61 µM; on dopamine transporter [2] it was 27.6 ± 1 µM; on dopamine transporter [3] it was 18.5 ± 2.7 µM. Moreover, the “5-HT/DA (ratio of uptake Ki)” value on serotonin transporter came to 0.16.

`O=C1CN2CCC(c3ccc(Cl)cc3)C1C2` (stereo not drawn) [Compound (+)-5]: the Ki turned out to be 25.1 ± 3.6 µM on serotonin transporter, 4.53 ± 0.41 µM in assay [1], 10.5 ± 0.45 µM at dopamine transporter [2] and 6.77 ± 0.5 µM on dopamine transporter [3]. On serotonin transporter, the “5-HT/DA (ratio of uptake Ki)” value was 2.4. Moreover, on dopamine transporter [2], the “higher activity / selectivity at the DAT over the 5-HTT” value came out at 2.4 fold.

For `O=C1CN2CCC(c3ccc(Cl)cc3)C1C2` (stereo not drawn) [Compound (-)-4], the Ki on serotonin transporter amounted to 1.89 ± 0.44 µM; in assay [1], 70.9 ± 18 µM; on dopamine transporter [2], 16.5 ± 0.97 µM; on dopamine transporter [3], 10.5 ± 0.93 µM. Moreover, at serotonin transporter, the “5-HT/DA (ratio of uptake Ki)” value is given as 0.11. The “more active at the 5-HTT (5-HTT/NET selectivity)” value on serotonin transporter (reuptake inhibition, 5-HTT over NET) amounted to 38 fold.

With `O=C1CN2CCC(c3ccc(Cl)cc3)C1C2` (stereo not drawn) [Compound (-)-5], the inhibitory constant (Ki) at serotonin transporter is 11.9 ± 0.61 µM; in assay [1], 4.65 ± 0.44 µM; on dopamine transporter [2], 9.05 ± 0.46 µM; at dopamine transporter [3], 9.74 ± 0.16 µM. In addition, the “5-HT/DA (ratio of uptake Ki)” value at serotonin transporter worked out at 1.3. The “higher activity / selectivity at the DAT over the 5-HTT” value at dopamine transporter [2] was determined as 1.3 fold.

As to `COc1ccc(C(CN(C)C)C2(O)CCCCC2)cc1` (stereo not drawn) [venlafaxine], the “selectivity for serotonin (dual serotonin and norepinephrine re-uptake inhibitor)” value in assay [4] is reported as “five-fold selectivity for serotonin”. Further, the “time to full antidepressant effect” value in assay [5] was 4 to 7 days.

Regarding “(1R, 2S, 4R, 7S)-(-)-10-methylene-2-(p-tolyl)-8-azatricyclo [5.2.0.0^4.8 ] decane [Compound (-)-40]”, the Ki on serotonin transporter amounted to 0.00176 µM; in assay [1], 0.00524 ± 7e-05 µM; on dopamine transporter [2], 0.0603 ± 0.0004 µM; on dopamine transporter [3] it was 0.0543 ± 0.0102 µM. Further, the “5-HT/DA (ratio of uptake Ki)” value on serotonin transporter was 0.029.

As for “(1SR, 2SR, 3RS, 5RS, 7SR)-2-butyl-methylphenyl)-10-azatricyclo [5.3.0.0^5,10 ]decane [Compound 50a]”, the Ki was found to be 0.81 ± 0.0795 µM on serotonin transporter, 0.0517 ± 0.012 µM in assay [1], 0.149 ± 0.00213 µM on dopamine transporter [2] and 0.149 ± 0.00575 µM on dopamine transporter [3]. The “5-HT/DA (ratio of uptake Ki)” value at serotonin transporter is on record as 5.4.

Values taken from patent publication US6150376A, “Bi- and tri-cyclic aza compounds and their uses” (Georgetown University, priority 1998, dated 2000).
